Measurements as given in US20250144067A1, “PERSONALIZED STARVATION THERAPY FOR CANCER” (Faeth Therapeutics, Inc., priority 2021, published 2025).
Structures can show the parent of a compound that is named as a salt. Where two headings read alike, the source gives them in different places.

Assays:
[1] = system: NCI-H292 lung cancer cells; experiment: FDA drug screening, complete media vs cholesterol-free media without statin (TABLE 1); assay type: cell-based, human
[2] = system: NCI-H292 lung cancer cells; experiment: FDA drug screening, complete media vs cholesterol-free media with simvastatin (TABLE 2); assay type: cell-based, human
[3] = NCI-H292 cells, cholesterol-free media without statin, FDA drug library screen
[4] = NCI-H292 cells, complete media, FDA drug library screen
[5] = complete vs cholesterol-free media, […]
[6] = NCI-H292 cells, FDA library drug in cholesterol-free media with simvastatin 0.04 μM
[7] = NCI-H292 cells, FDA library drug in complete media
[8] = NCI-H292 cells, FDA drug library screen, complete media
[9] = NCI-H292 cells, cholesterol-free media with simvastatin 0.04 μM, cell growth value in FDA drug screen
[10] = NCI-H292 cells, complete media, cell growth value in FDA drug screen
[11] = complete media minus cholesterol-free media + simvastatin, >0 enhanced anti-cancer activity, about 0 neutral, <0 antagonist
[12] = NCI-H292 cells, cholesterol-free media without statin
[13] = complete vs cholesterol-free media, greater than 0 enhanced anti-cancer activity, about 0 neutral, below 0 antagonists
[14] = complete vs cholesterol-free media, >0 enhanced anti-cancer activity, about 0 neutral, <0 antagonist
[15] = NCI-H292 cells, complete media, FDA drug library screen (TABLE 2)
[16] = complete media minus cholesterol-free media + simvastatin (0.04 μM), […]
[17] = Complete minus Cholesterol-free, >0 enhanced anti-cancer activity, about 0 neutral, <0 antagonist
[18] = NCI-H292 cells, FDA drug library screen, cholesterol-free media with simvastatin 0.04 μM
[19] = complete media vs cholesterol-free media + simvastatin (0.04 μM), >0 enhanced anti-cancer activity, about 0 neutral, <0 antagonist
[20] = NCI-H292 cells, cholesterol-free media with simvastatin 0.04 μM, FDA drug library screen (TABLE 2)

Compound: O=C(O[C@H]1C[C@H]2CC[C@@H](C1)[N+]21CCCC1)C(O)(c1ccccc1)c1ccccc1.[Cl-] [Trospium (chloride)]
- Cholesterol-free [1, 3]: 1.278
- Complete [1, 4]: 1.859
- Difference [1, 5]: 0.58
- Cholesterol-free media + simvastatin (0.04 μM) [2, 6]: 2.08
- Complete Media [2, 7]: 1.646
- Difference ([2]; complete media vs cholesterol-free media + simvastatin (0.04 μM), […]): −0.43

Compound: O=C(Nc1cccc2c(=O)cc(-c3nnn[nH]3)oc12)c1ccc(OCCCCc2ccccc2)cc1 [Pranlukast (hemihydrate)]
- Difference ([1]; Complete minus Cholesterol-free, greater than 0 enhanced anti-cancer activity, about 0 neutral, below 0 antagonist): −0.10
- Cholesterol-free ([1]; NCI-H292 cells, FDA drug library screen, cholesterol-free media without statin): 1.075
- Complete [1, 8]: 0.9755
- Cholesterol-free media + simvastatin (0.04 μM) [2, 9]: 1.189
- Complete Media [2, 10]: 1.285
- Difference [2, 11]: 0.10

Compound: CC(C)(C)NC(=O)[C@H]1CC[C@H]2[C@@H]3CC[C@H]4NC(=O)C=C[C@]4(C)[C@H]3CC[C@]12C [Finasteride]
- Cholesterol-free [1, 12]: 1.209
- Complete ([1]; NCI-H292 cells, complete media): 0.7878
- Difference [1, 13]: −0.42
- Cholesterol-free media + simvastatin (0.04 μM) [2, 9]: 1.571
- Complete Media [2, 10]: 1.636
- Difference [2, 11]: 0.06

Compound: C#Cc1cccc(Nc2ncnc3cc(OCCOC)c(OCCOC)cc23)c1 [Erlotinib (Hydrochloride)]
- Cholesterol-free [1, 3]: 0.2078
- Complete [1, 4]: 0.4921
- Difference [1, 14]: 0.28
- Cholesterol-free media + simvastatin (0.04 μM) [2, 9]: 0.6388
- Complete Media [2, 10]: 0.67
- Difference [2, 11]: 0.03

Compound: Thymopentin (acetate)
- Cholesterol-free [1, 3]: 0.9838
- Complete [1, 4]: 1.095
- Difference [1, 5]: 0.11
- Complete Media [2, 15]: 1.151
- Difference [2, 16]: 0.00

Compound: O=C(O)c1cc(=O)[nH]c(=O)[nH]1 [Orotic acid]
- Difference [1, 17]: −0.23
- Cholesterol-free [1, 12]: 1.001
- Complete ([1]; NCI-H292 cells, complete media): 0.7657
- Cholesterol-free media + simvastatin (0.04 μM) [2, 9]: 1.191
- Complete Media [2, 10]: 1.261
- Difference [2, 11]: 0.07

Compound: Cc1cn(-c2cc(NC(=O)c3ccc(C)c(Nc4nccc(-c5cccnc5)n4)c3)cc(C(F)(F)F)c2)cn1
- Difference ([1]; Complete minus Cholesterol-free, greater than 0 enhanced anti-cancer activity, about 0 neutral, below 0 antagonists): −0.54
- Cholesterol-free ([1]; NCI-H292 cells in cholesterol-free media without statin): 1.23
- Complete ([1]; NCI-H292 cells in complete media): 0.6857
- Cholesterol-free media + simvastatin (0.04 μM) [2, 18]: 0.854
- Complete Media [2, 8]: 0.7821
- Difference [2, 19]: −0.07

Compound: C[N+](C)(C)CCCCCCCCCC[N+](C)(C)C.[Br-].[Br-] [Decamethonium (Bromide)]
- Cholesterol-free [1]: 1.121
- Complete [1]: 0.9062
- Difference [1]: −0.21
- Cholesterol-free media + simvastatin (0.04 μM) [2]: 1.129
- Complete Media [2]: 0.9457
- Difference [2]: −0.18

Compound: O=C(O)c1cc(/N=N/c2ccc(O)c(C(=O)O)c2)ccc1O [Olsalazine (Disodium)]
- Difference [1, 17]: −0.25
- Cholesterol-free [1, 12]: 1.211
- Complete ([1]; NCI-H292 cells, complete media): 0.9604
- Cholesterol-free media + simvastatin (0.04 μM) [2, 20]: 1.218
- Difference ([2]; complete media minus cholesterol-free media + simvastatin (0.04 μM), >0 enhanced anti-cancer activity, about 0 neutral, <0 antagonist): −0.07

Compound: CC(O)C(=O)O.CCOc1ccc2nc3cc(N)ccc3c(N)c2c1.O [Ethacridine (lactate monohydrate)]
- Difference ([1]; Complete minus Cholesterol-free, […]): −0.05
- Cholesterol-free [1, 3]: 0.2006
- Complete [1, 4]: 0.1519
- Cholesterol-free media + simvastatin (0.04 μM) [2, 20]: 0.1737
- Complete Media [2, 15]: 0.1706
- Difference [2, 16]: 0.00

Compound: CC(C)(C)C(=O)OCC(=O)[C@H]1CC[C@H]2[C@@H]3CCC4=CC(=O)CC[C@]4(C)[C@H]3CC[C@]12C [Desoxycorticosterone pivalate]
- Cholesterol-free [1]: 1.574
- Complete [1]: 1.04
- Difference [1]: −0.53
- Cholesterol-free media + simvastatin (0.04 μM) [2]: 1.728
- Complete Media [2]: 1.762
- Difference [2]: 0.03

Compound: COc1nc(C)nc(Cl)c1N=C1NCCN1 [Moxonidine]
- Difference [1, 17]: 0.05
- Cholesterol-free [1, 3]: 0.9137
- Complete [1, 4]: 0.9657
- Cholesterol-free media + simvastatin (0.04 μM) [2, 9]: 0.8373
- Complete Media [2, 10]: 0.9283
- Difference [2, 11]: 0.09

Compound: O=C(O[C@H]1CN2CCC1CC2)N1CCc2ccccc2[C@@H]1c1ccccc1 [Solifenacin (hydrochloride)]
- Cholesterol-free [1, 12]: 1.128
- Complete ([1]; NCI-H292 cells, complete media): 0.8222
- Difference [1, 13]: −0.31
- Cholesterol-free media + simvastatin (0.04 μM) [2, 9]: 0.865
- Complete Media [2, 10]: 0.978
- Difference [2, 11]: 0.11

Compound: COc1ccc(-n2nc(C(N)=O)c3c2C(=O)N(c2ccc(N4CCCCC4=O)cc2)CC3)cc1 [Apixaban]
- Difference [1, 17]: −0.06
- Cholesterol-free [1, 3]: 0.9998
- Complete [1, 4]: 0.9349
- Cholesterol-free media + simvastatin (0.04 μM) [2, 18]: 0.9978
- Complete Media [2, 8]: 1.135
- Difference [2, 11]: 0.14

Compound: CC(C)c1nc(CN(C)C(=O)N[C@H](C(=O)N[C@@H](Cc2ccccc2)C[C@H](O)[C@H](Cc2ccccc2)NC(=O)OCc2cncs2)C(C)C)cs1 [Ritonavir]
- Difference [1, 17]: −0.25
- Cholesterol-free [1, 12]: 1.533
- Complete ([1]; NCI-H292 cells, complete media): 1.287
- Cholesterol-free media + simvastatin (0.04 μM) [2, 6]: 1.133
- Complete Media [2, 7]: 0.8233
- Difference [2, 19]: −0.31

Compound: CCc1cc2c(cc1N1CCC(N3CCOCC3)CC1)C(C)(C)c1[nH]c3cc(C#N)ccc3c1C2=O [Alectinib]
- Difference [1, 17]: −0.21
- Cholesterol-free [1, 12]: 1.125
- Complete ([1]; NCI-H292 cells, complete media): 0.9146
- Cholesterol-free media + simvastatin (0.04 μM) [2, 6]: 1.385
- Complete Media [2, 7]: 1.02
- Difference [2, 19]: −0.37

Compound: O=C(CCC/C=C\C[C@@H]1[C@@H](CC[C@@H](O)CCc2ccccc2)[C@H](O)C[C@@H]1O)OCCCCO[N+](=O)[O-] [Latanoprostene bunod]
- Cholesterol-free [1, 3]: 0.8229
- Complete [1, 4]: 1.464
- Difference [1, 14]: 0.64
- Cholesterol-free media + simvastatin (0.04 μM) [2, 18]: 1.139
- Complete Media [2, 8]: 1.004
- Difference [2, 19]: −0.14

Compound: NC(=O)C(c1ccccc1)(c1ccccc1)[C@@H]1CCN(CCc2ccc3c(c2)CCO3)C1 (racemic) [(±)-Darifenacin]
- Cholesterol-free [1, 3]: 1.009
- Complete [1, 4]: 1.18
- Difference [1, 14]: 0.17
- Cholesterol-free media + simvastatin (0.04 μM) [2, 18]: 0.9772
- Complete Media [2, 8]: 0.8726
- Difference [2, 19]: −0.10

Compound: C[N+](C)(C)CCO.[Cl-] [Choline (chloride)]
- Cholesterol-free [1, 3]: 0.7223
- Complete [1, 4]: 1.217
- Difference [1, 14]: 0.49
- Cholesterol-free media + simvastatin (0.04 μM) [2, 9]: 0.793
- Complete Media [2, 10]: 0.8494
- Difference [2, 11]: 0.06

Compound: CN(C)C(=O)C(CCN1CCC(O)(c2ccc(Cl)cc2)CC1)(c1ccccc1)c1ccccc1 [Loperamide (hydrochloride)]
- Cholesterol-free [1]: 1.105
- Complete [1]: 0.9631
- Difference [1]: −0.14
- Cholesterol-free media + simvastatin (0.04 μM) [2]: 1.197
- Complete Media [2]: 0.9577
- Difference [2]: −0.24

Compound: CC[C@H]1OC(=O)[C@H](C)[C@@H](O[C@H]2C[C@@](C)(OC)[C@@H](O)[C@H](C)O2)[C@H](C)[C@@H](O[C@@H]2O[C@H](C)C[C@H](N(C)C)[C@H]2O)[C@](C)(O)C[C@@H](C)[C@@H]2N[C@@H](COCCOC)O[C@H]([C@H]2C)[C@]1(C)O [Dirithromycin]
- Cholesterol-free [1, 3]: 0.918
- Complete [1, 4]: 0.9938
- Difference [1, 14]: 0.08
- Cholesterol-free media + simvastatin (0.04 μM) [2, 18]: 1.565
- Complete Media [2, 8]: 1.493
- Difference [2, 19]: −0.07
